Source: patent US20100144779A1, “Marine Alkalod Makaluvamines and Derivatives Thereof” (THE UAB RESEARCH FOUNDATION, priority 2007, published 2010)

Legend:
Assay in all cases: NCI60 cell line screen (SRB)
Assay type in all cases: cell-based, human
[1] = system: HOP-92; settings: HOP-92, Non-Small Cell Lung Cancer, 48 h
Procedure: (§1) This panel implements the NCI60 cell line screen, including leukemia, non-small cell lung cancer, colon cancer, central nervous system cancer, melanoma, ovarian cancer, renal cancer, prostate cancer and breast cancer. The cell lines tested are specified in Table 3.
(§2) Generally, the human tumor cell lines of the cancer screening panel are grown in RPMI 1640 medium containing 5% fetal bovine serum and 2 mM L-glutamine. For a typical screening experiment, cells are inoculated into 96 well microtiter plates in 100 μL at plating densities ranging from 5,000 to 40,000 cells/well depending on the doubling time of individual cell lines. After cell inoculation, the microtiter plates are incubated at 37° C., 5% CO2, 95% air and 100% relative humidity for 24 h prior to addition of experimental drugs. After 24 h, two plates of each cell line are fixed in situ with TCA, to represent a measurement of the cell population for each cell line at the time of drug addition (Tz). Experimental drugs are solubilized in dimethyl sulfoxide at 400-fold the desired final maximum test concentration and stored frozen prior to use. At the time of drug addition, an aliquot of frozen concentrate is thawed and diluted to twice the desired final maximum test concentration with complete medium containing 50 μg/ml gentamicin. Additional four, 10-fold or ½ log serial dilutions are made to provide a total of five drug concentrations plus control. Aliquots of 100 μl of these different drug dilutions are added to the appropriate microtiter wells already containing 100 μl of medium, resulting in the required final drug concentrations.
(§3) Following drug addition, the plates are incubated for an additional 48 h at 37° C., 5% CO2, 95% air, and 100% relative humidity. For adherent cells, the assay is terminated by the addition of cold TCA. Cells are fixed in situ by the gentle addition of 50 μl of cold 50% (w/v) TCA (final concentration, 10% TCA) and incubated for 60 minutes at 4° C. The supernatant is discarded, and the plates are washed five times with tap water and air dried. Sulforhodamine B (SRB) solution (100 μl) at 0.4% (w/v) in 1% acetic acid is added to each well, and plates are incubated for 10 minutes at room temperature. After staining, unbound dye is removed by washing five times with 1% acetic acid and the plates are air dried. Bound stain is subsequently solubilized with 10 mM trizma base, and the absorbance is read on an automated plate reader at a wavelength of 515 nm. For suspension cells, the methodology is the same except that the assay is terminated by fixing settled cells at the bottom of the wells by gently adding 50 μl of 80% TCA (final concentration, 16% TCA). Using the seven absorbance measurements (time zero, Tz, control growth, (control), and test growth in the presence of drug at the five concentration levels (Ti)), the percentage growth is calculated at each of the drug concentrations levels. Percentage growth inhibition is calculated as:
(§4) [(Ti−Tz)/(C−Tz)]×100 for concentrations for which Ti>/=Tz
(§5) [(Ti−Tz)/Tz]×100 for concentrations for which Ti<Tz.

[2] = system: NCI/ADR-RES; settings: Breast Cancer, 48 h
Procedure: as §1, §2, §3, §4, §5

[3] = system: SF-268; settings: SF-268, CNS Cancer, 48 h
Procedure: as §1, §2, §3, §4, §5

[4] = system: TK-10; settings: TK-10, Renal Cancer, 48 h
Procedure: as §1, §2, §3, §4, §5

[5] = system: UACC-62; settings: UACC-62, Melanoma, 48 h
Procedure: as §1, §2, §3, §4, §5

[6] = system: K-562; settings: K-562, Leukemia, 48 h
Procedure: as §1, §2, §3, §4, §5

[7] = system: HT-29; settings: HT-29, Colon Cancer, 48 h
Procedure: as §1, §2, §3, §4, §5

[8] = system: 786-0; settings: 786-0, Renal Cancer, 48 h
Procedure: as §1, §2, §3, §4, §5

[9] = system: IGROV1; settings: IGROV1, Ovarian Cancer, 48 h
Procedure: as §1, §2, §3, §4, §5

[10] = system: SK-MEL-5; settings: SK-MEL-5, Melanoma, 48 h
Procedure: as §1, §2, §3, §4, §5

[11] = system: SF-539; settings: SF-539, CNS Cancer, 48 h
Procedure: as §1, §2, §3, §4, §5

[12] = system: ACHN; settings: Renal Cancer, 48 h
Procedure: as §1, §2, §3, §4, §5

[13] = system: PC-3; settings: PC-3, Prostate Cancer, 48 h
Procedure: as §1, §2, §3, §4, §5

[14] = system: RPMO-8226; settings: RPMO-8226, Leukemia; 48 h
Procedure: as §1, §2, §3, §4, §5

[15] = system: EKVX; settings: Non-Small Cell Lung Cancer, 48 h
Procedure: as §1, §2, §3, §4, §5

[16] = system: M14; settings: M14, Melanoma, 48 h
Procedure: as §1, §2, §3, §4, §5

[17] = system: HCC-2998; settings: HCC-2998, Colon Cancer, 48 h
Procedure: as §1, §2, §3, §4, §5

[18] = system: HCT-116; settings: HCT-116, Colon Cancer, 48 h
Procedure: as §1, §2, §3, §4, §5

[19] = system: DU-145; settings: DU-145, Prostate Cancer, 48 h
Procedure: as §1, §2, §3, §4, §5

[20] = system: NCI-H226; settings: NCI-H226, Non-Small Cell Lung Cancer, 48 h
Procedure: as §1, §2, §3, §4, §5

[21] = system: SNB-75; settings: SNB-75, CNS Cancer, 48 h
Procedure: as §1, §2, §3, §4, §5

[22] = system: LOX IMVI; settings: Melanoma, 48 h
Procedure: as §1, §2, §3, §4, §5

[23] = system: BT-459; settings: BT-459, Breast Cancer, 48 h
Procedure: as §1, §2, §3, §4, §5

[24] = system: HCT-15; settings: HCT-15, Colon Cancer, 48 h
Procedure: as §1, §2, §3, §4, §5

[25] = system: HL-60; settings: HL-60, Leukemia, 48 h
Procedure: as §1, §2, §3, §4, §5

O=C1C(NCc2ccccc2)=CC2=NCCc3c[nH]c1c32 [Compound 4c]
GI50 [1]: 0.308 µM
GI50 [2]: 3.51 µM
GI50 [3]: 2.83 µM
GI50 [4]: 4.72 µM
GI50 [5]: 1.82 µM
GI50 [6]: 2.36 µM
GI50 [7]: 0.488 µM
GI50 [8]: 3.22 µM
GI50 [9]: 0.793 µM
GI50 [10]: 0.462 µM
GI50 [11]: 1.91 µM
GI50 [12]: 2.8 µM
GI50 [13]: 1.54 µM
GI50 [14]: 1.36 µM
GI50 [15]: 0.271 µM
GI50 [16]: 1.28 µM
GI50 [17]: 2.61 µM
GI50 [18]: 0.306 µM
GI50 [19]: 1.79 µM
GI50 [20]: 5.45 µM
GI50 [21]: 1.65 µM
GI50 [22]: 1.81 µM
GI50 [23]: 4.58 µM
GI50 [24]: 1.39 µM
GI50 [25]: 0.325 µM

O=C(O)C(F)(F)F.O=C1C(NCCc2ccc3c(c2)OCO3)=CC2=NCCc3c[nH]c1c32 [Compound 6]
GI50 ([1]; Homo sapiens): 5.45 µM
GI50 ([2]; Homo sapiens): 1.76 µM
GI50 ([3]; Homo sapiens): 3.66 µM
GI50 ([4]; Homo sapiens): 4.51 µM
GI50 ([5]; Homo sapiens): 2.32 µM
GI50 ([6]; Homo sapiens, K562): 3.43 µM
GI50 ([7]; Homo sapiens): 2.07 µM
GI50 ([8]; Homo sapiens): 3.98 µM
GI50 ([9]; Homo sapiens, IGROV-1): 2.52 µM
GI50 ([10]; Homo sapiens): 0.965 µM
GI50 ([11]; Homo sapiens): 2.21 µM
GI50 ([12]; Homo sapiens): 3.25 µM
GI50 ([13]; Homo sapiens): 5.93 µM
GI50 ([15]; Homo sapiens): 1.96 µM
GI50 ([16]; Homo sapiens): 1.43 µM
GI50 ([17]; Homo sapiens): 1.56 µM
GI50 ([18]; Homo sapiens): 2.41 µM
GI50 ([19]; Homo sapiens): 1.35 µM
GI50 ([20]; Homo sapiens): 4.38 µM
GI50 ([21]; Homo sapiens): 3.49 µM
GI50 ([22]; Homo sapiens): 1.68 µM
GI50 ([23]; Homo sapiens): 3.07 µM
GI50 ([24]; Homo sapiens): 1.86 µM
GI50 ([25]; Homo sapiens): 1.92 µM
